Experimental data reported in patent publication US12202834B2, “Solid state forms of oclacitinib maleate” (VationPharma B.V., priority 2019, dated 2025).
Values joined by “and” are separate entries in the source; they are usually repeats but may differ in a detail not shown here. Equal entries are not always repeated. Structures can show the parent of a compound that is named as a salt.

Assays:
Type in all cases: physicochemical
[1] = Stability tests of solid forms (storage, solid form analysed by XRPD); settings: for Relative humidity at which the solid form is stable / can be stored: general statement in description
Experimental: The stability of the solid forms of oclacitinib obtained was tested at three different conditions, i.e. storage at 25° C. at 0% relative humidity, 40° C. at 75% rH and 25° C. at 100% rH. Alternatively or additionally, the stability of the solid forms of oclacitinib obtained was tested at 25° C. at 25% rH.

[2] = Thermodynamic solubility test (saturated solution, gravimetric); settings: for Solubility, Average: average of three determinations; for Solubility compared to oclacitinib maleate form A: form A normalized to 100% (FIG. 16); for Solubility: single determination, saturated solution, 15 minutes stirring (600 rpm), 15 minute equilibrium, 0.2 μm filter
Experimental: The thermodynamic solubility of different forms of oclacitinib maleate was tested by generating a saturated solution for each form (i.e. oclacitinib maleate form A, amorphous oclacitinib maleate and monohydrate form of oclacitinib maleate). After 15 minutes of stirring (600 rpm) and further 15 minute of an equilibrium phase the solution was filtrated over an 0.2 μm syringe filter into a vial with a known weight.
Subsequently, the solvent was allowed to evaporate and the vial was then weighted again.

[3] = Hygroscopicity of solid state form; settings: general statement in description
[4] = relatively high humidity, 25° C. at 100% rH
[5] = relatively high humidity, 40° C. at 75% rH
[6] = relatively low humidity, 25° C. at 0% rH

Row | SMILES | Solid form found after storage ([1]; 25° C./0% rH, Week 1) | Solid form found after storage ([1]; 25° C./0% rH, Week 4) | Solid form found after storage ([1]; 25° C./100% rH, Week 1) | Solid form found after storage ([1]; 25° C./100% rH, Week 4) | Solid form found after storage ([1]; 40° C./75% rH, Week 1) | Solid form found after storage ([1]; 40° C./75% rH, Week 4) | Solubility, Average [2] | Solubility [2] | also measured
1 | CNS(=O)(=O)C[C@H]1CC[C@H](N(C)c2ncnc3[nH]ccc23)CC1 [example 8, amorphous oclacitinib maleate] | – | – | – | – | – | – | – | – | Change of solid state on storage (XRPD) ([1]; 25° C. at 0% rH, after 2 weeks): remains stable; Change of solid state on storage (XRPD) ([1]; 25° C. at 25% rH, 3 weeks): does not show any change of solid state; Change of solid state on storage (XRPD) ([1]; 25° C. at 100% rH, after 2 weeks): conversion (intermediate graphs) of the amorphous phase to the monohydrate form of oclacitinib maleate; Change of solid state on storage (XRPD) ([1]; 40° C. at 75% rH, after 2 weeks): conversion (intermediate graphs) of the amorphous phase to the monohydrate form of oclacitinib maleate
2 | CNS(=O)(=O)C[C@H]1CC[C@H](N(C)c2ncnc3[nH]ccc23)CC1 [tetramethyl urea solvate form of oclacitinib maleate] | TMU solvate | TMU solvate | Form B | Form B | Form B | Form B | – | – | Solid form found after storage ([1]; 25° C./0% rH, Week 12): TMU solvate; Solid form found after storage ([1]; 25° C./100% rH, Week 12): Form B; Solid form found after storage ([1]; 40° C./75% rH, Week 12): Form B; Stability of solid form [1, 4]: converses into oclacitinib maleate form B; Stability of solid form [1, 5]: converses into oclacitinib maleate form B; Stability of solid form [1, 6]: is stable
3 | CNS(=O)(=O)C[C@H]1CC[C@H](N(C)c2ncnc3[nH]ccc23)CC1 [example 9, amorphous oclacitinib maleate] | – | – | – | – | – | – | – | – | Change of solid state on storage (XRPD) ([1]; 25° C. at 25% rH, 3 weeks): mixture (upper graph) comprising amorphous oclacitinib maleate and oclacitinib maleate form A
4 | CNS(=O)(=O)C[C@H]1CC[C@H](N(C)c2ncnc3[nH]ccc23)CC1 [monohydrate form of oclacitinib maleate] | Monohydrate | Monohydrate | Monohydrate | Monohydrate | Monohydrate | Monohydrate | 8.994 mg/mL | 9.053 mg/mL and 9.047 mg/mL and 8.884 mg/mL | Solubility compared to oclacitinib maleate form A [2]: halved; Stability of solid form ([1]; all three storage conditions (25° C./0% rH, 40° C./75% rH, 25° C./100% rH)): stable under all storage conditions; Stability of solid state with respect to relative humidity, in words ([1]; low (<50% rH) and high (>50% rH) relative humidity): stable by any relative humidity of the surrounding air
5 | CNS(=O)(=O)C[C@H]1CC[C@H](N(C)c2ncnc3[nH]ccc23)CC1 [oclacitinib maleate form B] | Form B | Form A | Form B | Form B | Form B | Form B | – | – | Solid form found after storage ([1]; 25° C./0% rH, Week 12): Form A; Solid form found after storage ([1]; 25° C./100% rH, Week 12): Form B; Solid form found after storage ([1]; 40° C./75% rH, Week 12): Form B; Relative humidity at which the solid form is stable / can be stored [1]: at least 30%; Stability of solid form [1, 4]: is stable; Stability of solid form [1, 5]: is stable; Stability of solid form [1, 6]: converses into oclacitinib maleate form A; Hygroscopicity [3]: non-hygroscopic
6 | CNS(=O)(=O)C[C@H]1CC[C@H](N(C)c2ncnc3[nH]ccc23)CC1 [Amorphous, amorphous oclacitinib maleate] | – | – | – | – | – | – | 37.834 mg/mL | 37.095 mg/mL and 37.430 mg/mL and 38.976 mg/mL | Solubility compared to oclacitinib maleate form A ([2]; listed as amorphous form of oclacitinib maleate): more than twice as soluble
7 | CNS(=O)(=O)C[C@H]1CC[C@H](N(C)c2ncnc3[nH]ccc23)CC1 [Form A, N-methyl(4-(methyl(7H-pyrrolo[2,3-d]pyrimidin-4-yl)amino)cyclohexyl)methanesulfonamide maleic acid salt, reference compound] | – | – | – | – | – | – | 17.135 mg/mL | 16.914 mg/mL and 16.690 mg/mL and 17.802 mg/mL | Relative humidity at which the solid form is stable / can be stored ([1]; listed as oclacitinib maleate form A): at most 30%
